According to ChEMBL document CHEMBL5241116, “Isolation of Fluorescent Benzoxazines with Neuroprotective Activity from the Olive Weevil Pimelocerus perforatus” (J Nat Prod, 2022):
Activity calls are given as the source filed them. The rule behind the calls is not given here.

Assays:
SH-SY5Y = assay: Neuroprotective activity against H2O2-induced cell death in human SH-SY5Y cells pretreated with compound followed by H2O2 stimulation and measured after 24 hrs by WST-8 assay; type: functional, cell-based
[1] = Neurotoxicity in human SH-SY5Y cells assessed as reduction in cell viability at 50 uM by WST-8 assay; type: toxicity, cell-based

| SMILES | Activity (SH-SY5Y) | Activity [1] |
| --- | --- | --- |
| Cc1c(C)c2c(c(C)c1O)CCC(C)(C(=O)O)O2 (configuration not stated) | Active |  |
| O=C1C=C2Nc3cc(CCO)ccc3O[C@]23CCO[C@@]1(O)C3 (racemic) | Active | Non-Toxic |
| O=C1C=C2Nc3ccc(CCO)cc3O[C@]23CCO[C@@]1(O)C3 (racemic) | Active | Non-Toxic |
| OCCc1ccc(O)c(O)c1 [HYDROXYTYROSOL] | Active | Non-Toxic |
